Measured values published in patent US6927401B1, “Method of characterizing fluorescent molecules or other particles using generating functions” (Evotec OAI AG, priority 1999, dated 2005).

Assays:
[1] = system: monoclonal antibody exposed on the surface of hybridoma cell line HB-8152
Method: The cell number of a confluent hybridoma culture was determined to be 1.6×10^6 per ml and aliquotes with approx. 0.5×10^6 hybridoma cells in 100 μl were used for each single experiment. The cells were washed in 100 μl phosphate buffered saline (PBS) buffer for 5 minutes to remove soluble antibody from the assay. Subsequently, the cells were incubated for 30 minutes in 100 μl PBS containing the theophylline-TAMRA conjugate at different concentrations: 0, 0.4, 2, 8, 16, 40, 200, 800 nM. […] The degree of fluorescence labelling of the hybridoma cells was determined for each single experiment in four independent measurements.

EGF receptor = biological target: T1, EGF receptor (Homo sapiens, UniProt P00533); experiment: FIDA competition assay, HCT membranes with TMR-EGF and competitor; conditions: binding normalized to absence of competitor, read-out: affinity (competition with TMR-EGF)
T1 construct: endogenous in cells; host or cells: HCT (human colon carcinoma tumor) cells, crude membranes
Method: Binding was determined by the method according to the present invention and was normalized to that in the absence of competitor.

IC50 [1]	Ki (EGF receptor)	Compound
0.25 µM	–	Cn1c(=O)c2[nH]cnc2n(C)c1=O [theophylline, 1,3-dimethylxanthine]
–	0.00023 ± 2e-05 µM	betacellulin: polypeptide growth factor with sequence identity with EGF, from R & D Systems
